Results reported in ChEMBL document CHEMBL1124733, “Synthesis and cardiac electrophysiological activity of N-substituted-4-(1H-imidazol-1-yl)benzamides--new selective class III agents” (J Med Chem, 1990).
Where “and” joins values, the source holds several entries; their conditions need not be identical. Equal values may be shown once.

Experiments:
Canis familiaris [1] = species on record: Canis familiaris; assay: Concentration which caused a 20% increase in AP95 was determined.; format: functional, Canis lupus familiaris
Canis familiaris [2] = species on record: Canis familiaris; assay: Maximum observed percent change in action potential duration (APD) at 95% repolarization at 100 uM using standard microelectrode technique in isolated canine cardiac Purkinje fibers; format: functional, Canis lupus familiaris, Purkinje fiber
[3] = Maximum observed percent change in Vmax and the concentration at which it was observed was determined at 100 uM; format: ADME
Canis familiaris [4] = species on record: Canis familiaris; assay: Percent change in action potential duration at 95% repolarization and 10 uM in isolated canine cardiac Purkinje fibres.; format: functional, Canis lupus familiaris, Purkinje fiber
[5] = Percent change in the Vmax at a 10 uM concentration of the test compound; Minimal; format: ADME
Canis familiaris [6] = species on record: Canis familiaris; assay: Maximum observed percent change in action potential duration (APD) at 95% repolarization at 30 uM using standard microelectrode technique in isolated canine cardiac Purkinje fibers; format: functional, Canis lupus familiaris, Purkinje fiber
Canis familiaris [7] = species on record: Canis familiaris; assay: Concentration which caused a 20% increase in AP95 was determined.; Not reached; format: functional; conditions: Canis lupus familiaris
[8] = Maximum observed percent change in Vmax and the concentration at which it was observed was determined at 30 uM; Minimal; format: ADME
[9] = Maximum observed percent change in Vmax and the concentration at which it was observed was determined at 100 uM; Minimal; format: ADME
[10] = Percent change in the Vmax at a 10 uM concentration of the test compound; format: ADME
Canis familiaris [11] = species on record: Canis familiaris; assay: Maximum observed percent change in action potential duration (APD) at 95% repolarization at 10 uM using standard microelectrode technique in isolated canine cardiac Purkinje fibers; format: functional, Canis lupus familiaris, Purkinje fiber
[12] = Maximum observed percent change in Vmax and the concentration at which it was observed was determined at M[30] uM; Minimal; format: ADME
[13] = Maximum observed percent change in Vmax and the concentration at which it was observed was determined at 10 uM; format: ADME
Canis familiaris [14] = species on record: Canis familiaris; assay: Maximum observed percent change in action potential duration (APD) at 95% repolarization at 1 uM using standard microelectrode technique in isolated canine cardiac Purkinje fibers; format: functional, Canis lupus familiaris, Purkinje fiber
Canis familiaris [15] = assay: In vivo electrophysiology was given as change in Function refractory period at 3 mg/kg, iv; format: functional, Canis lupus familiaris
Canis familiaris [16] = assay: Effective dose with the number of animals in PES efficacy model of conscious dog; Not effective in two animals; format: functional, Canis lupus familiaris
Canis familiaris [17] = assay: Number of animals in which sustained ventricular tachycardia or ventricular fibrillation was not inducible after drug administration among the number of animals tested (4) in PES efficacy model of anesthetized dog; format: functional, Canis lupus familiaris, Cardiac ventricle
Canis familiaris [18] = assay: Percent change in heart rate from control at 30 mg/kg, id; format: functional, Canis lupus familiaris; conditions: route intraduodenal
Canis familiaris [19] = assay: Number of animals in which sustained ventricular tachycardia or ventricular fibrillation was not inducible after drug administration among the number of animals tested (6) in PES efficacy model of anesthetized dog; format: functional, Canis lupus familiaris, Cardiac ventricle
Canis familiaris [20] = assay: Effective dose with the number of animals in PES efficacy model of anesthetized dog; Not effective in one animal; format: functional, Canis lupus familiaris
Canis familiaris [21] = assay: Effective dose with the number of animals in PES efficacy model of conscious dog; format: functional, Canis lupus familiaris
Canis familiaris [22] = assay: In vivo electrophysiology was given as change in Function refractory period at 10 mg/kg, id; format: functional, Canis lupus familiaris; conditions: route intraduodenal
Canis familiaris [23] = assay: In vivo electrophysiology was given as change in Function refractory period at 30 mg/kg, id; format: functional, Canis lupus familiaris; conditions: route intraduodenal
Canis familiaris [24] = assay: Effective dose with the number of animals in PES efficacy model of anesthetized dog; format: functional, Canis lupus familiaris
Canis familiaris [25] = assay: Percent change in heart rate from control at 10 mg/kg, id; format: functional, Canis lupus familiaris; conditions: route intraduodenal
Canis familiaris [26] = assay: Percent change in heart rate from control at 3 mg/kg, iv; format: functional, Canis lupus familiaris
Canis familiaris [27] = assay: Effective dose with the number of animals in PES efficacy model of conscious dog; Not effective in one animal; format: functional, Canis lupus familiaris
Canis familiaris [28] = assay: Number of animals in which sustained ventricular tachycardia or ventricular fibrillation was not inducible after drug administration among the number of animals tested (9) in PES efficacy model of anesthetized dog; format: functional, Canis lupus familiaris, Cardiac ventricle
Canis familiaris [29] = assay: Number of animals in which sustained ventricular tachycardia or ventricular fibrillation was not inducible after drug administration among the number of animals tested (5) in PES efficacy model of anesthetized dog; format: functional, Canis lupus familiaris, Cardiac ventricle
[30] = Maximum observed percent change in Vmax and the concentration at which it was observed was determined at 10 uM; Minimal; format: ADME
[31] = Maximum observed percent change in Vmax and the concentration at which it was observed was determined at 50 uM; Minimal; format: ADME
Canis familiaris [32] = species on record: Canis familiaris; assay: Maximum observed percent change in action potential duration (APD) at 95% repolarization at 3 uM using standard microelectrode technique in isolated canine cardiac Purkinje fibers; format: functional, Canis lupus familiaris, Purkinje fiber
Canis familiaris [33] = species on record: Canis familiaris; assay: Concentration which caused a 20% increase in AP95 was determined. Lowest and highest values given in brackets; not reached; format: functional; conditions: Canis lupus familiaris
[34] = Maximum observed percent change in Vmax and the concentration at which it was observed was determined; Minimal; format: ADME

SMILES	C20 APD95 (Canis familiaris [1]) [µM]	Max delta APD95 (Canis familiaris [2]) [%]	Delta APD95 (Canis familiaris [4]) [%]	Delta Vmax [5]	Max delta APD95 (Canis familiaris [6]) [%]	C20 APD95 (Canis familiaris [7])	max Delta Vmax [8]	max Delta Vmax [9]	Max delta APD95 (Canis familiaris [11]) [%]	other results
CCN(CC)[C@H]1CCCCC1NC(=O)c1ccc(-n2ccnc2)cc1.Cl (stereo not given in full)	1.2	85	60	Minimal	–	–	–	–	–	Max delta [3]: -46%
O=C(NCCN(Cc1ccccc1)Cc1ccccc1)c1ccc(-n2ccnc2)cc1	–	–	6	Minimal	6.5	Not reached	Minimal	–	–	–
CCN1CCCC1CNC(=O)c1ccc(-n2ccnc2)cc1.Cc1ccc(S(=O)(=O)O)cc1 (stereo not given)	3	72	39	–	–	–	–	Minimal	–	Delta Vmax [10]: -13%; max Delta Vmax [3]: -26%
O=C(c1ccc(-n2ccnc2)cc1)N1CCNCC1	10.5	–	17	Minimal	28	Not reached	–	–	–	Max delta [8]: Minimal
CCN(CC)CCNC(=O)c1ccc(-n2ccnc2C)cc1.CS(=O)(=O)O	–	16	4	Minimal	–	Not reached	–	Minimal	13	max Delta Vmax [12]: Minimal
CCN(CC)CCNC(=O)c1ccc(-c2ncc[nH]2)cc1.Cl.Cl	65	31	7	Minimal	–	–	–	–	–	max Delta Vmax [3]: -14%
CN1CCN(S(=O)(=O)c2ccc(-n3ccnc3)cc2)CC1	39	–	9	Minimal	14	Not reached	–	Minimal	24	max Delta Vmax [13]: -23%
O=C(NC1CCN(Cc2ccccc2)CC1)c1ccc(-n2ccnc2)cc1	0.7	–	75	Minimal	97	–	Minimal	–	–	–
CCN(CC)CCCNC(=O)c1ccc(-n2ccnc2)cc1.Cl.Cl	3	–	40	–	48	–	–	–	–	–
CS(=O)(=O)O.O=C(c1ccc(-n2ccnc2)cc1)N1CCN(Cc2ccccc2)CC1	0.9	–	46	Minimal	–	–	Minimal	–	46	–
CCN(CC)CCN(C(=O)c1ccc(-n2ccnc2)cc1)c1cccc2ccccc12	0.4	–	28	–	–	Not reached	-31%	–	46	Delta Vmax [10]: -14%; Max delta APD95 (Canis familiaris [14]): 39% and 18% and 24%
CCN(CC)CCNC(=O)c1ccc(-n2ccnc2)cc1.Cl.Cl	2.9	56	34	Minimal	52.5	–	Minimal	Minimal	–	FRP (Canis familiaris [15]): 13%; Effective dose (Canis familiaris [16]): 3 mg/kg; No. effective (Canis familiaris [17]): 3; HR (Canis familiaris [18]): -29; No effective/ no. tested (Canis familiaris [19]): 4; Effective dose (Canis familiaris [20]): 10 mg/kg; Effective dose (Canis familiaris [21]): 0.3 mg/kg; FRP (Canis familiaris [22]): 12%; FRP (Canis familiaris [23]): 19%; Effective dose (Canis familiaris [24]): 1 mg/kg; HR (Canis familiaris [25]): -15; HR (Canis familiaris [26]): -18
CCN(CC)CCNC(=O)c1cccc(-n2ccnc2)c1.Cl.Cl	4	–	27	Minimal	60	–	Minimal	Minimal	50	–
CCN(CC)CCNC(=O)c1ccc(NS(C)(=O)=O)cc1.Cl [SEMATILIDE HYDROCHLORIDE]	4.4	65	31	Minimal	51	–	Minimal	Minimal	–	FRP (Canis familiaris [15]): 19%; Effective dose (Canis familiaris [27]): 10 mg/kg; HR (Canis familiaris [18]): -17; No. effective (Canis familiaris [28]): 8; No. effective (Canis familiaris [29]): 4; Effective dose (Canis familiaris [20]): 3 mg/kg; FRP (Canis familiaris [22]): 15%; FRP (Canis familiaris [23]): 18%; HR (Canis familiaris [25]): -17; HR (Canis familiaris [26]): -23
CN1CCN(C(=O)c2ccc(-n3ccnc3)cc2)CC1.Cl.Cl	3.7	–	32	Minimal	55	–	Minimal	–	31	max Delta Vmax [30]: Minimal
Cl.O=C(NCCNCc1ccccc1)c1ccc(-n2ccnc2)cc1	1.2	59	41	Minimal	–	–	–	–	41	max Delta Vmax [31]: Minimal; max Delta Vmax [3]: -11%
CCN(CC)CCN(Cc1ccccc1)C(=O)c1ccc(-n2ccnc2)cc1	0.5	–	65	Minimal	65	–	Minimal	–	–	–
O=C(NC1CCNCC1)c1ccc(-n2ccnc2)cc1	–	–	5	Minimal	–	–	–	–	–	Max delta APD95 (Canis familiaris [32]): 10%; Max delta [8]: Minimal; C20 APD95 (Canis familiaris [33]): Not reached
Cl.NCCNC(=O)c1ccc(-n2ccnc2)cc1	–	13	1	Minimal	–	Not reached	–	–	10	max Delta Vmax [34]: Minimal
